Where two headings read alike, the source gives them in different places.
How the values were obtained:
[1] = molecular target: T1, purified recombinant human IDO1 (rhIDO1) (Homo sapiens, UniProt P14902); assay: rhIDO1 enzymatic assay (conversion of L-Trp to L-KYN, p-dimethylaminobenzaldehyde readout); assay type: biochemical; conditions: for inhibition at 1 µM: rhIDO1, compound 1 µM, mean ± SE of two independent experiments; for IC50: rhIDO1, concentration-response curves, at least three experiments in triplicate
T1 construct: purchased Origene
Description: All the 22 synthesized compounds were then biologically evaluated (Table 1). The compounds were tested for their ability to inhibit human IDO1 in an enzyme-based assay using a purified recombinant human IDO1 (rhIDO1) enzyme (Table 1). Each compound (1 µM) was added to the reaction buffer and the rhIDO1 conversion of L-Trp to L-KYN was determined spectrophotometrically using p-dimethylaminobenzaldehyde. As reference, imidazothiazole compound 1-((3-(4-bromophenyl)-3aH-thieno [2,3-b]pyrrol-4-yl)methyl)-3-(4-cyanophenyl)urea, displaying an IC50 value of 0.08 µM, was chosen.
rhIDO1 activity was determined as follows. In brief, the standard reaction mixture (200 μL) contained 50 mM potassium phosphate buffer (KPB) (pH 6.5), 20 mM ascorbic acid (neutralized with NaOH and HCl) (Sigma Aldrich), 100 μg/mL catalase (Sigma Aldrich), 10 μM methylene blue (Alfa Aesar, Heysham, Lancashire, UK), 100 µM L-tryptophan (Sigma Aldrich), 50 nM rhIDO1 (Origene, Bologna, Italy), and dimethyl sulfoxide (DMSO) solution of the compound (4 μL). The reaction was carried out at 37 °C for 60 min and stopped by the addition of 40 μL of 30% (w/v) CCl3COOH. After heating at 50 °C for 15 min, the reaction mixture was centrifuged at 1500× g for 10 min. The supernatant (150 μL) was transferred into a well of a 96-well microplate and mixed with 150 μL of 2% (w/v) p-dimethylaminobenzaldehyde (Ehrlich’s reagent) in acetic acid. The yellow pigment derived from kynurenine was measured at 490 nm using an Ultramark Microplate Imaging System (Bio-Rad, Hercules, CA, USA). IC50 values were calculated from concentration-response curves obtained in at least three different experiments run in triplicate.

IDO1 = test system: IDO1; set-up: method as in PMID 29398544; conditions: cited from earlier work
[2] = molecular target: T1, purified recombinant human IDO1 (rhIDO1); conditions: cited from earlier work

T1 sequence (P14902 whole entry): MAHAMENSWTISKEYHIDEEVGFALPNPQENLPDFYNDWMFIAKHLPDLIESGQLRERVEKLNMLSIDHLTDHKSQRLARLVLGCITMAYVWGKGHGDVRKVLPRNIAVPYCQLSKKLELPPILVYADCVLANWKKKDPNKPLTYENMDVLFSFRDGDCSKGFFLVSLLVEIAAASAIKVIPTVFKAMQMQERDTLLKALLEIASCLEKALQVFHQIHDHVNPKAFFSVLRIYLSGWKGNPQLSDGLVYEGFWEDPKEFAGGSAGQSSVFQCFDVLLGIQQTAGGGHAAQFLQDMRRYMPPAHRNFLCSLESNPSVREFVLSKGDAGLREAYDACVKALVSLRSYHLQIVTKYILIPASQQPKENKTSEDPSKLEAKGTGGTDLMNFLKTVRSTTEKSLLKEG

With O=C(O)CCc1cn(CC(=O)NCc2cnc3scc(-c4ccc(Br)cc4)n23)nn1 [12j, 3-(1-(2-(((3-(4-Bromophenyl)imidazo[2,1-b]thiazol-5-yl)methyl)amino)-2-oxoethyl)-1H-1,2,3-triazol-4-yl)propanoic acid] the inhibition at 1 µM [1] was 33 ± 4.5% and the melting point was 153 to 154 °C (dec.).
In the case of COc1ccc(-c2cn(Cc3cnc4scc(-c5ccc(Br)cc5)n34)nn2)cc1 [11c, 3-(4-Bromophenyl)-5-((4-(4-methoxyphenyl)-1H-1,2,3-triazol-1-yl)methyl)imidazo[2,1-b]thiazole], the inhibition at 1 µM [1] is reported as 57 ± 13% and the melting point is reported as 118 to 119 °C (dec.).
With OC1(c2cn(Cc3cnc4scc(-c5ccc(Br)cc5)n34)nn2)CCCCC1 [11h, 1-(1-((3-(4-Bromophenyl)imidazo[2,1-b]thiazol-5-yl)methyl)-1H-1,2,3-triazol-4-yl)cyclohexanol] the inhibition at 1 µM [1] was 35 ± 2.4% and the melting point was 163.5 to 164.5 °C (dec.).
In the case of Brc1ccc(-c2csc3ncc(Cn4cc(C5CC5)nn4)n23)cc1 [11g, 3-(4-Bromophenyl)-5-((4-cyclopropyl-1H-1,2,3-triazol-1-yl)methyl)imidazo[2,1-b]thiazole], the inhibition at 1 µM [1] is reported as 61 ± 7.1% and the melting point is reported as 145.5 to 146.5 °C.
For Nc1ccc(-c2cn(Cc3cnc4scc(-c5ccc(Br)cc5)n34)nn2)cc1 [11d, 4-(1-((3-(4-Bromophenyl)imidazo[2,1-b]thiazol-5-yl)methyl)-1H-1,2,3-triazol-4-yl)aniline], the inhibition at 1 µM [1] was 17 ± 1.2% and the melting point was 117 to 118 °C (dec.).
For O=C(COC(=O)Cc1ccc(O)cc1)NCc1cnc2scc(-c3ccc(Br)cc3)n12 [compound 2], the “ability to permeate the cell and inhibit IDO1 in a cell-based assay” value (IDO1) is given as “not able to significantly permeate the cell and to inhibit IDO1 in a cell-based assay”.
Compound Brc1ccc(-c2csc3ncc(Cn4cc(Cc5ccccc5)nn4)n23)cc1 [11a, 5-((4-Benzyl-1H-1,2,3-triazol-1-yl)methyl)-3-(4-bromophenyl)imidazo[2,1-b]thiazole] has an inhibition at 1 µM [1] of 30 ± 6.7% and a melting point of 106.5 to 107.5 °C.
O=C(Cn1cc(Cc2ccccc2)nn1)NCc1cnc2scc(-c3ccc(Br)cc3)n12 [12a, 2-(4-Benzyl-1H-1,2,3-triazol-1-yl)-N-((3-(4-bromophenyl)imidazo[2,1-b]thiazol-5-yl)methyl)acetamide] showed an inhibition at 1 µM [1] of 63 ± 4.3% and a melting point of 177 to 177.5 °C.
With O=C(Cn1cc(CCCO)nn1)NCc1cnc2scc(-c3ccc(Br)cc3)n12 [12i, N-((3-(4-Bromophenyl)imidazo[2,1-b]thiazol-5-yl)methyl)-2-(4-(3-hydroxypropyl)-1H-1,2,3-triazol-1-yl)acetamide] the inhibition at 1 µM [1] was 45 ± 2.8% and the melting point was 169 to 170 °C (dec.).
In the case of O=C(Cn1cc(-c2ccccc2)nn1)NCc1cnc2scc(-c3ccc(Br)cc3)n12 [12b, N-((3-(4-Bromophenyl)imidazo[2,1-b]thiazol-5-yl)methyl)-2-(4-phenyl-1H-1,2,3-triazol-1-yl)acetamide], the inhibition at 1 µM [1] is reported as 61 ± 5.5% and the melting point is reported as 251.5 to 252.5 °C (dec.).
With O=C(Cn1cc(C2CC2)nn1)NCc1cnc2scc(-c3ccc(Br)cc3)n12 [12g, N-((3-(4-Bromophenyl)imidazo[2,1-b]thiazol-5-yl)methyl)-2-(4-cyclopropyl-1H-1,2,3-triazol-1-yl)acetamide] the inhibition at 1 µM [1] was 70 ± 9.2%, the IC50 [1] was 200 ± 10 nM and the melting point was 225 to 225.5 °C (dec.).
For Brc1ccc(-c2csc3ncc(Cn4cc(-c5ccccc5)nn4)n23)cc1 [11b, 3-(4-Bromophenyl)-5-((4-phenyl-1H-1,2,3-triazol-1-yl)methyl)imidazo[2,1-b]thiazole], the inhibition at 1 µM [1] was 35 ± 2.7% and the melting point was 199 to 199.5 °C (dec.).
N#CCCCCc1cn(Cc2cnc3scc(-c4ccc(Br)cc4)n23)nn1 [11k, 5-(1-((3-(4-Bromophenyl)imidazo[2,1-b]thiazol-5-yl)methyl)-1H-1,2,3-triazol-4-yl)pentanenitrile] showed an inhibition at 1 µM [1] of 62 ± 5.6%.
Compound N#CCc1ccc(-c2cn(Cc3cnc4scc(-c5ccc(Br)cc5)n34)nn2)cc1 [11f, 2-(4-(1-((3-(4-Bromophenyl)imidazo[2,1-b]thiazol-5-yl)methyl)-1H-1,2,3-triazol-4-yl)phenyl)acetonitrile] has an inhibition at 1 µM [1] of 74 ± 5.8%, an IC50 [1] of 500 ± 40 nM and a melting point of 121.5 to 122.5 °C.
With Nc1ccc(-c2cn(CC(=O)NCc3cnc4scc(-c5ccc(Br)cc5)n34)nn2)cc1 [12d, 2-(4-(4-Aminophenyl)-1H-1,2,3-triazol-1-yl)-N-((3-(4-bromophenyl)imidazo[2,1-b]thiazol-5-yl)methyl)acetamide] the inhibition at 1 µM [1] was 56 ± 4.7% and the melting point was 217 to 218 °C (dec.).
N#CCCCCc1cn(CC(=O)NCc2cnc3scc(-c4ccc(Br)cc4)n23)nn1 [12k, N-((3-(4-Bromophenyl)imidazo[2,1-b]thiazol-5-yl)methyl)-2-(4-(4-cyanobutyl)-1H-1,2,3-triazol-1-yl)acetamide] showed an inhibition at 1 µM [1] of 50 ± 11% and a melting point of 179.5 to 180.5 °C.
Compound N#CCc1ccc(-c2cn(CC(=O)NCc3cnc4scc(-c5ccc(Br)cc5)n34)nn2)cc1 [12f, N-((3-(4-Bromophenyl)imidazo[2,1-b]thiazol-5-yl)methyl)-2-(4-(4-(cyanomethyl)phenyl)-1H-1,2,3-triazol-1-yl)acetamide] has an inhibition at 1 µM [1] of 55 ± 7.2% and a melting point of 231 to 231.5 °C.
With OCCCc1cn(Cc2cnc3scc(-c4ccc(Br)cc4)n23)nn1 [11i, 3-(1-((3-(4-Bromophenyl)imidazo[2,1-b]thiazol-5-yl)methyl)-1H-1,2,3-triazol-4-yl)propan-1-ol] the inhibition at 1 µM [1] was 0%.
For N#Cc1ccc(-c2cn(CC(=O)NCc3cnc4scc(-c5ccc(Br)cc5)n34)nn2)cc1 [12e, N-((3-(4-Bromophenyl)imidazo[2,1-b]thiazol-5-yl)methyl)-2-(4-(4-cyanophenyl)-1H-1,2,3-triazol-1-yl)acetamide], the inhibition at 1 µM [1] was 50 ± 4.5% and the melting point was 267 to 267.5 °C (dec.).
In the case of N#Cc1ccc(NC(=O)NCC2=CN=C3SC=C(c4ccc(Br)cc4)C23)cc1 (stereo not shown) [1-((3-(4-bromophenyl)-3aH-thieno [2,3-b]pyrrol-4-yl)methyl)-3-(4-cyanophenyl)urea], the IC50 ([2]; rhIDO1, read-out: IC50 (rhIDO1)) is listed as 80 nM.
Compound O=C(Cn1cc(C2(O)CCCCC2)nn1)NCc1cnc2scc(-c3ccc(Br)cc3)n12 [12h, N-((3-(4-Bromophenyl)imidazo[2,1-b]thiazol-5-yl)methyl)-2-(4-(1-hydroxycyclohexyl)-1H-1,2,3-triazol-1-yl)acetamide] has an inhibition at 1 µM [1] of 63 ± 4.1% and a melting point of 165 to 166 °C.
In the case of CN(CC(=O)NCc1cnc2scc(-c3ccc(Br)cc3)n12)C(=O)Cc1ccc([N+](=O)[O-])cc1 [compound 3], the IC50 ([2]; first series, published in 2018, read-out: IC50) is listed as 800 nM and the “ability to permeate the cell and inhibit IDO1 in a cell-based assay” value (IDO1) is listed as “not able to significantly permeate the cell and to inhibit IDO1 in a cell-based assay”.
In the case of N#Cc1ccc(-c2cn(Cc3cnc4scc(-c5ccc(Br)cc5)n34)nn2)cc1 [11e, 4-(1-((3-(4-Bromophenyl)imidazo[2,1-b]thiazol-5-yl)methyl)-1H-1,2,3-triazol-4-yl)benzonitrile], the inhibition at 1 µM [1] is reported as 28 ± 1.5% and the melting point is reported as 190 to 191 °C (dec.).
COc1ccc(-c2cn(CC(=O)NCc3cnc4scc(-c5ccc(Br)cc5)n34)nn2)cc1 [12c, N-((3-(4-Bromophenyl)imidazo[2,1-b]thiazol-5-yl)methyl)-2-(4-(4-methoxyphenyl)-1H-1,2,3-triazol-1-yl)acetamide] showed an inhibition at 1 µM [1] of 5 ± 1.2% and a melting point of 183 to 184 °C.
In the case of O=C(O)CCc1cn(Cc2cnc3scc(-c4ccc(Br)cc4)n23)nn1 [11j, 3-(1-((3-(4-Bromophenyl)imidazo[2,1-b]thiazol-5-yl)methyl)-1H-1,2,3-triazol-4-yl)propanoic acid], the inhibition at 1 µM [1] is reported as 81 ± 7.9%, the IC50 [1] is reported as 1100 ± 70 nM and the melting point is reported as 148 to 148.5 °C (dec.).

From publication PMC6572114, “Synthesis, Docking and Biological Evaluation of a Novel Class of Imidazothiazoles as IDO1 Inhibitors” (Molecules, 2019)
